The values below come from publication PMC6153800, “Structure-Based Drug Design and Characterization of Sulfonyl-Piperazine Benzothiazinone Inhibitors of DprE1 from Mycobacterium tuberculosis” (Antimicrobial Agents and Chemotherapy, 2018).

Each structure is given as a SMILES string. Converted amounts (≈) assume the structure as drawn.

Data set [1] can be described thus: Water solubility, shake flask method. It is filed as physicochemical. On the procedure:
Water solubility measurements were performed using the shake flask method ([28]). Approximately 1 ml of water was added to 1 mg of compound in an Eppendorf tube, followed by incubation for 3 days at 25°C with shaking at 800 rpm. Suspensions were centrifuged at 16,100 × g for 10 min, and the supernatant was filtered using 0.22-μm-pore size filters. Filtrates were injected onto a high-performance liquid chromatography (HPLC) column (Dionex), and the amount of compound was quantified using a calibration curve.

The conditions of data set [2]: mouse microsomes; cited from earlier work.
The test system of data set [3] is M. tuberculosis H37Rv. Description: Murine model of chronic TB. It is filed as in vivo, Mycobacterium tuberculosis. The settings on record: BALB/cByJ mice, 25 mg/kg by gavage 5 days a week for 4 weeks.
The test system of the next data set is HepG2 cells. To be noted: HepG2 cells, 3 days.
For data set [4], the system named is M. tuberculosis H37Rv. Description: microbe, parasite or virus in culture. It is filed as cell-based. The settings on record: Mycobacterium tuberculosis, H37RV; REMA, 7H9 broth, 6 days + 24 h resazurin; read-out: MIC99 H37Rv.
Data set [5] deals with M. tuberculosis H37Rv. Further details: method as in PMID 24500695. To be noted: ref [5]; cited from earlier work.
The conditions of data set [6]: human microsomes; cited from earlier work.

Take `O=c1nc(N2CCN(CC3CCCCC3)CC2)sc2c([N+](=O)[O-])cc(C(F)(F)F)cc12` [PBTZ169, macozinone, reference compound]: the “Times more soluble in water than calculated” value in data set [1] is on record as 400 times. Also, in data set [2], the CLint mouse microsome was 36.7 μl/min/mg protein. For the same molecule, in the data set with M. tuberculosis H37Rv [3], the “Bacterial burden in lungs lower than untreated control” value came out at 1.03 log10 CFU and the “Bacterial burden in spleens lower than untreated control” value was 1.47 log10 CFU. In the data set with HepG2 cells, this molecule registered a TD50 of 44.00 µg/mL. Moreover, in the data set on M. tuberculosis H37Rv [4], the MIC worked out at 0.2 ng/mL. Moreover, the “MIC against M. tuberculosis” value in the data set with M. tuberculosis H37Rv [5] is on record as 0.3 nM (≈ 0.137 ng/mL). Also, the CLint human microsome in data set [6] was 28 μl/min/mg protein.
